Literature values, collected in patent US20050255458A1, “Drug discovery assays based on the biology of chronic disease” (priority 2002, published 2005).
Read-outs that look alike come from different tables or passages of the source. Where a SMILES comes first, the peptide text is derived from it. [ ]: non-standard residue; d: D form. Aoe = N[C@@H](CCCCCC(=O)[C@@H]1CO1)C(=O)O

Key:
anagen hair follicles = details: cited from earlier work; for scalp hair growth: Philpott 1996
TF = details: cited from earlier work; for effect on Cu^+2 induced procoagulant activity: probucol 20, vitamin E 50, BHT 50, U74389G 20 μmol/L
AR gene = details: cited from earlier work
Rb = details: cited from earlier work; for increase in Rb mRNA: MEL cells, maximum on day three of induction
ERK1/2 = details: cited studies, various cells; cited from earlier work
ERK [1] = details: cited from earlier work
ACE [2] = molecular target: T1, ACE (Mus musculus, UniProt P09470); details: cited from earlier work
T1 sequence (P09470 35-1312): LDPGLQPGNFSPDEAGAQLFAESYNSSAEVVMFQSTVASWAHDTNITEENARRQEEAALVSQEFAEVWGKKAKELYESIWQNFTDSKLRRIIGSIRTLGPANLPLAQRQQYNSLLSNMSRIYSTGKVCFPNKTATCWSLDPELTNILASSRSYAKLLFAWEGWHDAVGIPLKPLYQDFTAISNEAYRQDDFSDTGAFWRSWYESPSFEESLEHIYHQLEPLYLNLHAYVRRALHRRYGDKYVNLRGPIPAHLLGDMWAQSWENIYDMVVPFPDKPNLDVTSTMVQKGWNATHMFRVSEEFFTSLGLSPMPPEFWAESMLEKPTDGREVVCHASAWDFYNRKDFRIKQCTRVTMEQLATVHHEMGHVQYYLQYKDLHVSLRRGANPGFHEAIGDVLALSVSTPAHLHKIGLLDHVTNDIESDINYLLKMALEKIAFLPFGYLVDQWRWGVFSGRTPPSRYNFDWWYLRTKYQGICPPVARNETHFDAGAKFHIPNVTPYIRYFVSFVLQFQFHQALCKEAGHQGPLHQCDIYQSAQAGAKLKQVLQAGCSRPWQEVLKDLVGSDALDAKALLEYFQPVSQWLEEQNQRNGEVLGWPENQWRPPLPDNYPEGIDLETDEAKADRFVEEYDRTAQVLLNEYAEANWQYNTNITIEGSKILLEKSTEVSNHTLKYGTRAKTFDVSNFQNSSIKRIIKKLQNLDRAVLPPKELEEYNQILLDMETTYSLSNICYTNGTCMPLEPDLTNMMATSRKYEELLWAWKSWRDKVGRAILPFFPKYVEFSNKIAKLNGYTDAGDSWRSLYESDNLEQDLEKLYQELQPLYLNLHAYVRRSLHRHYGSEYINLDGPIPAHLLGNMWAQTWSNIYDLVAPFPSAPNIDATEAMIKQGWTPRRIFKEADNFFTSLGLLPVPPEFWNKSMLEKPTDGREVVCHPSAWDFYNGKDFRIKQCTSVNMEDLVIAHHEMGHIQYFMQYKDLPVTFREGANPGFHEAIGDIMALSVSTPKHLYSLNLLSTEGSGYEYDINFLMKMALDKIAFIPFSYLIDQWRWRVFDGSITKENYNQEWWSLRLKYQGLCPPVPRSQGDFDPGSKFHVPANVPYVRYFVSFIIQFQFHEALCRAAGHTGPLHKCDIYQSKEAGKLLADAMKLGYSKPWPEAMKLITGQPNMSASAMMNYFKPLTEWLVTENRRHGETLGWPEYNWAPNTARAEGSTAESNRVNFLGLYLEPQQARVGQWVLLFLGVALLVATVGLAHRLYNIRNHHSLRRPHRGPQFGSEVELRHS

ACE [3] = molecular target: T2, ACE (Oryctolagus cuniculus, UniProt P12822); details: cited from earlier work
T2 construct: from tissue; host or cells: whole animal, in vivo (Watanabe rabbit)
T2 sequence (P12822 34-1310): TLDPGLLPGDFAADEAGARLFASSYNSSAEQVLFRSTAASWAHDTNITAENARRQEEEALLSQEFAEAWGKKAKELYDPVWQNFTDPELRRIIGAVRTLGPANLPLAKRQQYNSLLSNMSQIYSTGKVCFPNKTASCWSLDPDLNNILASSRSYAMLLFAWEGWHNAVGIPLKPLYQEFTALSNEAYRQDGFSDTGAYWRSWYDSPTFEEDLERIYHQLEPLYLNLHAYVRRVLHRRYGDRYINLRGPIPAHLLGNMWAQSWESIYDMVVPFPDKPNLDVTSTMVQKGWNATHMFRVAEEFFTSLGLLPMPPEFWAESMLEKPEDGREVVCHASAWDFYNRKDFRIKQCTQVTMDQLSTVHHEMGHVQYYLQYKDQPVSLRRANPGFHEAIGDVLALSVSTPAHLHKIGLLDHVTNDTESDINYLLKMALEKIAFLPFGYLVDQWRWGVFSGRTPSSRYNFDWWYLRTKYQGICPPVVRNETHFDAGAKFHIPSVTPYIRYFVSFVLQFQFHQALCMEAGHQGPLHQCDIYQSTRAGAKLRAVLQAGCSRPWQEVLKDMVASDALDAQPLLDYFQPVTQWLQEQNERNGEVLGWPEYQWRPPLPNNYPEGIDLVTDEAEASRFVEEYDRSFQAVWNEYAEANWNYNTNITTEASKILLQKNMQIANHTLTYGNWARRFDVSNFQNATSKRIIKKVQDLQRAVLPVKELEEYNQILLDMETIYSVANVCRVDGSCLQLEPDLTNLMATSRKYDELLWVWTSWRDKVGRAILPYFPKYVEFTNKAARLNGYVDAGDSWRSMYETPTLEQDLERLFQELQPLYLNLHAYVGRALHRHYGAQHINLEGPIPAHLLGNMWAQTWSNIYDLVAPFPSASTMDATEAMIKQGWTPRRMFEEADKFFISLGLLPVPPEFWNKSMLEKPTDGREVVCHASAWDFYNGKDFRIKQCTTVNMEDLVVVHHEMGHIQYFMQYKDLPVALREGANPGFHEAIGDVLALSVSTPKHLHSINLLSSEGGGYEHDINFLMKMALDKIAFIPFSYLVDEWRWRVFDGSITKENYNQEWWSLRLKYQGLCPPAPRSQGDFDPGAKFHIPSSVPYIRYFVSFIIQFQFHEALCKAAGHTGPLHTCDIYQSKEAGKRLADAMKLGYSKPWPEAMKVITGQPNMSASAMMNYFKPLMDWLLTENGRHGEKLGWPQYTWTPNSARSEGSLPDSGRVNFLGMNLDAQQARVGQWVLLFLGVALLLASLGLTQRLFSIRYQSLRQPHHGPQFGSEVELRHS

[4] = system: obese (fa/fa) Zucker rats; details: cited from earlier work
ERK [5] = details: A variety of cell types; cited from earlier work

Molecule: CNc1ccc2oc(C[C@H]3O[C@@]4(CC[C@H]3C)O[C@H]([C@H](C)C(=O)c3ccc[nH]3)[C@H](C)C[C@H]4C)nc2c1C(=O)O [A 23187]
- hair growth (anagen hair follicles; 6 days culture, A 23187 2 μM, TPA 1 μM, IL-1 100 ng per ml (Hoffmann 1997)): significantly inhibited hair growth

Molecule: Cc1cc(C(C)(C)C)c(O)c(C(C)(C)C)c1 [BHT]
- effect on Cu^+2 induced procoagulant activity (TF): inhibited the Cu^+2 induced procoagulant activity

Molecule: [Cu+2] [Cu+2]
- TF mRNA level (TF; at 2 hours): 50%
- increase of TF mRNA (TF; at 6 hours): 3.5 fold

Molecule: CC(=O)O[C@]1(C(C)=O)CC[C@H]2[C@@H]3C=C(Cl)C4=CC(=O)[C@@H]5C[C@@H]5[C@]4(C)[C@H]3CC[C@@]21C [Cyproterone acetate]
- Effect on [mRNAAR] (AR gene; LNCaP): ↓[mRNAAR]

Molecule: C[S+](C)[O-] [DMSO, dimethyl sulfoxide]
- increase in Rb mRNA (Rb): 11 fold

Molecule: CC(=O)NCCCCCCNC(C)=O [HMBA, hexamethylene bisacetamide]
- cells irreversibly committed to differentiate (Rb; DS19/Sc9, 48 h of culture): Over 90%
- increase in Rb transcription (Rb; DS19/Sc9): 3.6 fold
- increase in total pRb (Rb; DS19/Sc9 asynchronous cultures): 2-to 3 fold
- increase in Rb mRNA (Rb): 7 fold

Molecule: C[C@]12C=CC(=O)C=C1CC[C@@H]1C2=CC[C@]2(C)[C@@H](C(=O)CN3CCN(c4cc(N5CCCC5)nc(N5CCCC5)n4)CC3)CC[C@@H]12.O=C(O)/C=C\C(=O)O [U74389G]
- effect on Cu^+2 induced procoagulant activity (TF): inhibited the Cu^+2 induced procoagulant activity

Molecule: [Cu] [copper]
- phosphorylation of ERK1/2 (ERK1/2): phosphorylation of ERK1/2

Molecule: CC[C@H]1CN2CCc3cc(OC)c(OC)cc3[C@@H]2C[C@@H]1C[C@H]1NCCc2cc(OC)c(OC)cc21 [emetine]
- c-mos expression and ERK phosphorylation (ERK [1]; starfish eggs): inhibition of c-mos expression and ERK phosphorylation

Molecule: C[C@]12CC[C@@H]3c4ccc(O)cc4CC[C@H]3[C@@H]1CCC2=O [estron]
- phosphorylation of ERK1/2 (ERK1/2): phosphorylation of ERK1/2

Molecule: CC[C@H](C)[C@@H]1NC(=O)[C@H](Cc2ccc(O)cc2)NC(=O)[C@@H](N)CSSC[C@@H](C(=O)N2CCC[C@H]2C(=O)N[C@@H](CC(C)C)C(=O)NCC(N)=O)NC(=O)[C@H](CC(N)=O)NC(=O)[C@H](CCC(N)=O)NC1=O [oxytocin]
- phosphorylation of ERK1/2 (ERK1/2): phosphorylation of ERK1/2

Molecule: CC(C)(Sc1cc(C(C)(C)C)c(O)c(C(C)(C)C)c1)Sc1cc(C(C)(C)C)c(O)c(C(C)(C)C)c1 [probucol]
- effect on Cu^+2 induced procoagulant activity (TF): inhibited the Cu^+2 induced procoagulant activity

Molecule: C/C=C(/C)C(=O)O[C@H]1C(C)=C2[C@H]([C@@H]1OC(=O)CCCCCCC)[C@@](C)(OC(C)=O)C[C@H](OC(=O)CCC)[C@@]1(O)[C@H]2OC(=O)[C@@]1(C)O [thapsigargin]
- phosphorylation of ERK1/2 (ERK1/2): phosphorylation of ERK1/2

Molecule: O=C1N[C@@H](Cc2ccccc2)C(=O)N2CCC[C@@H]2C(=O)N[C@@H](CCCCCC(=O)[C@@H]2CO2)C(=O)N[C@H]1Cc1ccccc1 [trapoxin] (cyclo(FF[dP][Aoe]))
- phosphorylation of ERK1/2 (ERK1/2): phosphorylation of ERK1/2

Molecule: CC(/C=C/C(=O)NO)=C\[C@@H](C)C(=O)c1ccc(N(C)C)cc1 [trichostatin A]
- phosphorylation of ERK1/2 (ERK1/2): phosphorylation of ERK1/2

Molecule: [Zn] [zinc]
- phosphorylation of ERK1/2 (ERK1/2): phosphorylation of ERK1/2

Molecule: C[C@H](CSC(=O)c1ccccc1)C(=O)N1C[C@@H](Sc2ccccc2)C[C@H]1C(=O)O [zofenopril]
- macrophage-derived foam cells staining in the intima (ACE [2]; 1 mg/kg/day): significant decrease in macrophage-derived foam cells staining
- native LDL staining in the intima (ACE [2]; 1 mg/kg/day): significant decrease in native LDL staining
- total lesion area compared to placebo (ACE [2]; zofenopril 0.05 or 1, captopril 5, enalapril 0.5 mg/kg/day, 29 weeks): significantly decreased total lesion area
- decrease of aortic corrected cumulative lesion area (ACE [3]; 0.5 mg/kg/day, 6 weeks): 34%
- decrease of common carotid corrected cumulative lesion area (ACE [3]; 0.5 mg/kg/day, 6 weeks): 39%
- intimal presence of native LDL (ACE [3]; p<0.01 vs placebo): decreased
- intimal presence of macrophage derived foam cells (ACE [3]; p<0.05 vs placebo): decreased

Molecule: IL-β: printed IL-β, presumably IL-1β
- scalp hair growth (anagen hair follicles): inhibition of scalp hair growth

Molecule: TNFα
- scalp hair growth (anagen hair follicles): inhibition of scalp hair growth
- decrease of nighttime feeding (12 hours) ([4]; 50 ng/rat): 13%
- decrease of short-term feeding (4 hours) ([4]; 50 ng/rat): 17%
- decrease of total daily food intake ([4]; 50 ng/rat): 11%
- decrease of nighttime feeding (12 hours) ([4]; 100 ng/rat): 14%
- decrease of short-term feeding (4 hours) ([4]; 100 ng/rat): 20%
- decrease of total daily food intake ([4]; 100 ng/rat): 12%
- decrease of nighttime feeding (12 hours) ([4]; 500 ng/rat): 13%
- decrease of short-term feeding (4 hours) ([4]; 500 ng/rat): 20%
- decrease of total daily food intake ([4]; 500 ng/rat): 11%
- AR transcription in run-on assays (AR gene; LNCaP): No change in run-on
- Effect on [mRNAAR] (AR gene; LNCaP): ↓[mRNAAR]
- Effect on [ERK^phos] (ERK [5]): ↑[ERK^phos]

Molecule: estrogen
- growth of isolated hair follicles (anagen hair follicles; Kondo 1990): growth inhibition

Molecule: interferon-γ: ERK agent cytokine
- phosphorylation of ERK1/2 (ERK1/2): phosphorylation of ERK1/2

Molecule: interleukin 1β: cytokine, ERK agent
- phosphorylation of ERK1/2 (ERK1/2): phosphorylation of ERK1/2

Molecule: interleukin 6: cytokine, ERK agent
- ERK phosphorylation (ERK [1]; AF-10 human B cell line): increased ERK phosphorylation
- ERK phosphorylation (ERK [1]; LNCaP cells): increased ERK phosphorylation
- phosphorylation of ERK1/2 (ERK1/2): phosphorylation of ERK1/2
- AR mRNA (AR gene; LNCaP (Lin 2001)): decreased AR mRNA

Molecule: transforming growth factor β
- phosphorylation of ERK1/2 (ERK1/2): phosphorylation of ERK1/2

Molecule: tumor necrosis factor α
- phosphorylation of ERK1/2 (ERK1/2): phosphorylation of ERK1/2
